Patent publication US20240358015A1, “HERBICIDAL COMPOSITIONS” (Agrematch Ltd., priority 2021, published 2024)

Experiments:
[1] = system: Setaria viridis; test: Growth-chamber post-emergence herbicidal assay (Example 2); assay type: in vivo; settings: 1000 g/ha, 3-4 days after application
Method: Herbicidal activity was determined by post-emergence application on 8-day old plants (weeds) of the Amaranthus palmeri and Setaria viridis species that were grown at 16 hours/8 hours day/night cycles at 30° C./25° C., respectively. Leaf stage was typically 4-6 for A. palmeri and 3-4 for S. viridis.
In each treatment, 2-3 pots, each containing about 5 plants each (for Setaria viridis), and one 9-pack, containing about 9 plants (for Amaranthus palmeri), were sprayed using a VL-SET Paasche Airbrush with 0.3-1.5 ml solution containing 0.125-2 mg/ml of a tested compound, which is equivalent to about 125-2000 g/ha.
(§1) Damage assessment: Herbicidal activity was assessed and scored 3-4 days after application by visual inspection of the plants in comparison to plants treated with the formulation alone (with no active ingredient) as control. Activity score is in the range of 0 to 100, where 0 represents no herbicidal activity like control plants and 100 represents the maximal herbicidal activity (i.e., total death of the plant).
Herbicidal activity scores 3-4 days after application are presented Table 3 below.

[2] = system: Z. mays; test: Greenhouse post-emergence assay (Example 3); assay type: in vivo, Zea mays; settings: 4% TWEEN 20, 0.05 M Tris buffer pH 8, 0.05% Break-Thru
Method: Plant seeds were sowed in 9 cm×9 cm×10 cm flowerpots. Timing of sowing (days before treatment application) for each plant is detailed in Table 7 below. 5 flowerpots of each species were used for each treatment. Seeds were sowed in wet clay soil and then covered with about 1 cm layer of dry clay soil.
Irrigation: Irrigation was carried out using VIBRONET-UD (NETAFIM) sprinklers hanging upside down one meter above the flowerpots. Water flow capacity-50 liters per hour. Irrigation was carried out three times a day for 10 minutes.
Treatments: Table 8 presents generally the protocols of the various treatments used in these assays.
57.6 ml of 0.05 M Tris buffer pH=8 were added to 150 mg of Compound 1 and the mixture was stirred using a magnetic stirrer. 2.4 ml of TWEEN®20 were added and the mixture was stirred using a magnetic stirrer to obtain a 4% TWEEN®20-containing solution. 30 μl of Break-Thru were added to obtain a 0.05% Break-Thru-containing solution.
57.6 ml of 0.05 M Tris buffer pH=8 were added to 225 mg of Compound 1 and the mixture was stirred using a magnetic stirrer. 2.4 ml of TWEEN®20 were added and the mixture was stirred using a magnetic stirrer to obtain a 4% TWEEN®20-containing solution. 30 μl of Break-Thru were added to obtain a 0.05% Break-Thru-containing solution.
Plants were sprayed using a DeVreis Generation 4 Research Track Sprayer with a TEE JET nozzle 80015EVS. Spraying volume was 200 L/ha using the following sprayer parameters: • Spray speed-2 KMH • Spray length-1.50 m • Spray pressure-42 PSI
Each plant was sprayed twice, yielding a total spraying volume of 400 L/ha. Nozzle was located 55 cm above pots ground level.
A. palmeri, S. viridis and S. nigrum plants were elevated with 8 cm tray, Z. mays plants were elevated with 3 cm tray in order to achieve a similar spraying height for all plant's foliage.
Plants were scored by visual inspection of symptoms, on a scale of 0-100, where 0 represents no herbicidal activity like control plants and 100 represents the maximal herbicidal activity (i.e., total death of the plant). Each pot was scored separately. DAT=days after treatment

[3] = system: S. viridis; test: Growth-chamber post-emergence assay on various weed species (Example 7); assay type: in vivo, Setaria viridis; settings: 0.05% Break-Thru
Method: (§2) Herbicidal activity of Compound 1 was determined by post-emergence application on various weed species. 8-14 day old plants (weeds) were grown at 16 hours/8 hours day/night cycles at 30° C./25° C., respectively. Leaf stage was typically 2-6.
(§3) In each treatment, 3 pots (either 7×7 or 8×12 cm), containing about 3-6 plants each, were sprayed using a VL-SET Paasche Airbrush with a 1-1.5 ml-solution containing 0.5-1.5 mg/ml of the tested compound, which is equivalent to about 500-1500 g/ha.
as §1

[4] = system: S. nigrum; test: as above; assay type: in vivo, Solanum nigrum; settings: 0.05% Break-Thru
Method: as §2, §3, §1

[5] = system: X. strumarium; test: as above; assay type: in vivo, Xanthium strumarium; settings: 1500 g/ha; 0.8% MIPA, 0.25% Genapol, 2% HASTEN, 0.05% Break-Thru
Method: as §2, §3, §1

[6] = system: A. theophrasti; test: as above; assay type: in vivo, Abutilon theophrasti; settings: 1500 g/ha; 0.8% MIPA, 0.25% Genapol, 2% HASTEN, 0.05% Break-Thru
Method: as §2, §3, §1

[7] = system: Resistant A. rudis (target-site resistant to HRAC class 5); test: Growth-chamber assay with resistant weeds (Example 9); assay type: in vivo, Amaranthus rudis; settings: 2,000 g/ha, 4-5 days after application, scale 0-100
Method: (§4) Herbicidal activity of Compound 1 was determined by post-emergence application in both Growth-chamber and Net-house conditions. Growing conditions were as described in Examples 6 and 8 above.
(§5) The assay was performed on 9-11 day old plants (weeds) of Amaranthus rudis that were either target-site resistant or sensitive to HRAC class 5. In each treatment, between 1 to 3 pots (8×12 cm), containing about 6 Amaranthus Rudis plants, were sprayed using a VL-SET Paasche Airbrush with a 1 ml-solution.
(§6) Damage assessment: Herbicidal activity was assessed and scored 4-5 days after application by visual inspection of the plants in comparison to plants treated with the formulation alone (with no active ingredient) as control. Activity score is in the range of 0 to 100, where 0 represents no herbicidal activity like control plants and 100 represents the maximal herbicidal activity (i.e., total death of the plant).

[8] = system: Sensitive A. rudis; test: as above; assay type: in vivo, Amaranthus rudis; settings: 2,000 g/ha, 4-5 days after application, scale 0-100
Method: as §4, §5, §6

[9] = 750 g/ha, 0.2% MIPA, 2% TWEEN20, 1% AGNIQUE, 0.05% Ca-LAS, 0.02% BSU
[10] = 1500 g/ha, 0.8% MIPA, 0.25% Genapol, 2% HASTEN

For `O=C(O)c1cc(O)c2c(c1)C(=O)c1cccc(O)c1C2=O` [Compound 1, Rhein], the Herbicidal activity score ([1]; 1 mg/ml in 0.015% Ammonium hydroxide, 0.25% Adsee) was 10, the Herbicidal activity score ([1]; 1 mg/ml in 0.015% Ammonium hydroxide, 0.25% Genapol X-080) was 70 and the Herbicidal activity score ([1]; 1 mg/ml in 0.015% Ammonium hydroxide, 0.7% Sodium Lauryl Ether sulfate) was 100. The Herbicidal activity score ([1]; 1 mg/ml in 0.015% Ammonium hydroxide, 1% AGNIQUE, 0.05% Ca-LAS, 0.02% BSU) was 70, the Herbicidal activity score ([1]; 1 mg/ml in 0.015% Ammonium hydroxide, 2% Tween 20, scale 0-100) was 80 and the Herbicidal activity score ([1]; 1 mg/ml in 0.037% MIPA, 0.25% Adsee) was 40. The Herbicidal activity score ([1]; 1 mg/ml in 0.037% MIPA, 0.25% Genapol X-080) was 100, the Herbicidal activity score ([1]; 1 mg/ml in 0.037% MIPA, 0.7% Sodium Lauryl Ether sulfate) was 100 and the Herbicidal activity score ([1]; 1 mg/ml in 0.037% MIPA, 1% AGNIQUE, 0.05% Ca-LAS, 0.02% BSU) was 70. For the same molecule, the Herbicidal activity score ([1]; 1 mg/ml in 0.037% MIPA, 2% Tween 20) was 100, the “Activity Score” value ([1]; 2% TWEEN 20, 5.2 mM Ammonium hydroxide, 0.05% Break-Thru, scale 0-100) was 90 and the “Score by visual inspection of symptoms (average ± standard deviation, 5 pots)” value (from here on “Score … (average ± standard deviation, 5 pots)”) ([2]; 1000 g/ha (2.5 mg/ml, 400 L/ha), 1 DAT, scale 0-100) was 0 ± 0. For the same molecule, the “Score … (average ± standard deviation, 5 pots)” value ([2]; 1000 g/ha (2.5 mg/ml, 400 L/ha), 3 DAT) was 30 ± 0, the “Score … (average ± standard deviation, 5 pots)” value ([2]; 1000 g/ha (2.5 mg/ml, 400 L/ha), 6 DAT) was 20 ± 0 and the “Score … (average ± standard deviation, 5 pots)” value ([2]; 1000 g/ha (2.5 mg/ml, 400 L/ha), 8 DAT) was 22 ± 4.5. For the same molecule, the “Score … (average ± standard deviation, 5 pots)” value ([2]; 1000 g/ha (2.5 mg/ml, 400 L/ha), 15 DAT) was 10 ± 0, the “Score … (average ± standard deviation, 5 pots)” value ([2]; 1500 g/ha (3.75 mg/ml, 400 L/ha), 1 DAT) was 0 ± 0 and the “Score … (average ± standard deviation, 5 pots)” value ([2]; 1500 g/ha (3.75 mg/ml, 400 L/ha), 3 DAT) was 30 ± 0. For the same molecule, the “Score … (average ± standard deviation, 5 pots)” value ([2]; 1500 g/ha (3.75 mg/ml, 400 L/ha), 6 DAT) was 30 ± 0, the “Score … (average ± standard deviation, 5 pots)” value ([2]; 1500 g/ha (3.75 mg/ml, 400 L/ha), 8 DAT) was 28 ± 4.5 and the “Score … (average ± standard deviation, 5 pots)” value ([2]; 1500 g/ha (3.75 mg/ml, 400 L/ha), 15 DAT) was 20 ± 0. For the same molecule, the Herbicidal activity score ([3]; 500 g/ha, 0.8% MIPA, 0.25% Genapol, 1% AGNIQUE, 0.05% Ca-LAS, 0.02% BSU) was 70, the Herbicidal activity score [3, 9] was 70 and the Herbicidal activity score [3, 10] was 100. For the same molecule, the Herbicidal activity score [4, 9] was 95, the Herbicidal activity score [4, 10] was 100 and the Herbicidal activity score [5] was 90. For the same molecule, the Herbicidal activity score [6] was 40, the Herbicidal activity score [7] was 100 and the Herbicidal activity score [8] was 100.
